Data taken from ChEMBL document CHEMBL4665869, “New thiazolopyrimidine as anticancer agents: Synthesis, biological evaluation, DNA binding, molecular modeling and ADMET study” (Bioorg Med Chem Lett, 2020).
In brackets after ≈: the same amount, converted by molar mass.

How the values were obtained:
SNB-75 = experiment: Growth inhibition of human SNB-75 cells at 10 uM relative to control; assay type: functional; conditions: read-out: GI
NCI-H522 = experiment: Growth inhibition of human NCI-H522 cells at 10 uM relative to control; assay type: functional; conditions: read-out: GI
SK-OV-3 = experiment: Growth inhibition of human SK-OV-3 cells at 10 uM relative to control; assay type: functional; conditions: read-out: GI
RXF 393 = experiment: Growth inhibition of human RXF 393 cells at 10 uM relative to control; assay type: functional; conditions: read-out: GI
HCT-116 = experiment: Growth inhibition of human HCT-116 cells at 10 uM relative to control; assay type: functional; conditions: read-out: GI
NCI-H460 = experiment: Growth inhibition of human NCI-H460 cells at 10 uM relative to control; assay type: functional; conditions: read-out: GI
SNB-19 = experiment: Growth inhibition of human SNB-19 cells at 10 uM relative to control; assay type: functional; conditions: read-out: GI
NCI-H322M = experiment: Growth inhibition of human NCI-H322M cells at 10 uM relative to control; assay type: functional; conditions: read-out: GI
MDA-MB-231 = experiment: Growth inhibition of human MDA-MB-231 cells at 10 uM relative to control; assay type: functional; conditions: read-out: GI
BT-549 = experiment: Growth inhibition of human BT-549 cells at 10 uM relative to control; assay type: functional; conditions: read-out: GI
LOX IMVI = experiment: Growth inhibition of human LOX IMVI cells at 10 uM relative to control; assay type: functional; conditions: read-out: GI
DNA = experiment: Displacement of methyl green from DNA (unknown origin) assessed as DNA intercalation after 24 hrs by colorimetric assay; assay type: nucleic-acid assay
HT-29 = experiment: Growth inhibition of human HT-29 cells at 10 uM relative to control; assay type: functional; conditions: read-out: GI
SR = experiment: Growth inhibition of human SR cells at 10 uM relative to control; assay type: functional; conditions: read-out: GI
CAKI-1 = experiment: Growth inhibition of human CAKI-1 cells at 10 uM relative to control; assay type: functional; conditions: read-out: GI
Malme-3M = experiment: Growth inhibition of human Malme-3M cells at 10 uM relative to control; assay type: functional; conditions: read-out: GI
A549 = experiment: Growth inhibition of human A549 cells at 10 uM relative to control; assay type: functional; conditions: read-out: GI
SK-MEL-28 = experiment: Growth inhibition of human SK-MEL-28 cells at 10 uM relative to control; assay type: functional; conditions: read-out: GI
RPMI-8226 = experiment: Growth inhibition of human RPMI-8226 cells at 10 uM relative to control; assay type: functional; conditions: read-out: GI
MCF7 = experiment: Growth inhibition of human MCF7 cells at 10 uM relative to control; assay type: functional; conditions: read-out: GI
COLO 205 = experiment: Growth inhibition of human COLO 205 cells at 10 uM relative to control; assay type: functional; conditions: read-out: GI
M14 = experiment: Growth inhibition of human M14 cells at 10 uM relative to control; assay type: functional; conditions: read-out: GI
ACHN = experiment: Growth inhibition of human ACHN cells at 10 uM relative to control; assay type: functional; conditions: read-out: GI
UACC-257 = experiment: Growth inhibition of human UACC-257 cells at 10 uM relative to control; assay type: functional; conditions: read-out: GI
786-0 = experiment: Growth inhibition of human 786-0 cells at 10 uM relative to control; assay type: functional; conditions: read-out: GI
SW-620 = experiment: Growth inhibition of human SW-620 cells at 10 uM relative to control; assay type: functional; conditions: read-out: GI
T47D = experiment: Growth inhibition of human T47D cells at 10 uM relative to control; assay type: functional; conditions: read-out: GI
CCRF-CEM = experiment: Growth inhibition of human CCRF-CEM cells at 10 uM relative to control; assay type: functional; conditions: read-out: GI
UACC-62 = experiment: Growth inhibition of human UACC-62 cells at 10 uM relative to control; assay type: functional; conditions: read-out: GI
MDA-MB-468 = experiment: Growth inhibition of human MDA-MB-468 cells at 10 uM relative to control; assay type: functional; conditions: read-out: GI
SN12C = experiment: Growth inhibition of human SN12C cells at 10 uM relative to control; assay type: functional; conditions: read-out: GI
HOP-92 = experiment: Growth inhibition of human HOP-92 cells at 10 uM relative to control; assay type: functional; conditions: read-out: GI
NCI/ADR-RES = experiment: Growth inhibition of human NCI/ADR-RES cells at 10 uM relative to control; assay type: functional; conditions: read-out: GI
NCI-H23 = experiment: Growth inhibition of human NCI-H23 cells at 10 uM relative to control; assay type: functional; conditions: read-out: GI
DU-145 = experiment: Growth inhibition of human DU-145 cells at 10 uM relative to control; assay type: functional; conditions: read-out: GI
HL-60(TB) = experiment: Growth inhibition of human HL-60(TB) cells at 10 uM relative to control; assay type: functional; conditions: read-out: GI
NCI-H226 = experiment: Growth inhibition of human NCI-H226 cells at 10 uM relative to control; assay type: functional; conditions: read-out: GI
SF-295 = experiment: Growth inhibition of human SF-295 cells at 10 uM relative to control; assay type: functional; conditions: read-out: GI
SF-539 = experiment: Growth inhibition of human SF-539 cells at 10 uM relative to control; assay type: functional; conditions: read-out: GI
SF-268 = experiment: Growth inhibition of human SF-268 cells at 10 uM relative to control; assay type: functional; conditions: read-out: GI
OVCAR-8 = experiment: Growth inhibition of human OVCAR-8 cells at 10 uM relative to control; assay type: functional; conditions: read-out: GI
UO-31 = experiment: Growth inhibition of human UO-31 cells at 10 uM relative to control; assay type: functional; conditions: read-out: GI
KM12 = experiment: Growth inhibition of human KM12 cells at 10 uM relative to control; assay type: functional; conditions: read-out: GI
TK-10 = experiment: Growth inhibition of human TK-10 cells at 10 uM relative to control; assay type: functional; conditions: read-out: GI
OVCAR-4 = experiment: Growth inhibition of human OVCAR-4 cells at 10 uM relative to control; assay type: functional; conditions: read-out: GI
MDA-MB-435 = experiment: Growth inhibition of human MDA-MB-435 cells at 10 uM relative to control; assay type: functional; conditions: read-out: GI
SK-MEL-2 = experiment: Growth inhibition of human SK-MEL-2 cells at 10 uM relative to control; assay type: functional; conditions: read-out: GI
A498 = experiment: Growth inhibition of human A498 cells at 10 uM relative to control; assay type: functional; conditions: read-out: GI
HCC 2998 = experiment: Growth inhibition of human HCC 2998 cells at 10 uM relative to control; assay type: functional; conditions: read-out: GI
IGROV-1 = experiment: Growth inhibition of human IGROV-1 cells at 10 uM relative to control; assay type: functional; conditions: read-out: GI
K562 = experiment: Growth inhibition of human K562 cells at 10 uM relative to control; assay type: functional; conditions: read-out: GI
OVCAR-5 = experiment: Growth inhibition of human OVCAR-5 cells at 10 uM relative to control; assay type: functional; conditions: read-out: GI
HCT-15 = experiment: Growth inhibition of human HCT-15 cells at 10 uM relative to control; assay type: functional; conditions: read-out: GI
HOP-62 = experiment: Growth inhibition of human HOP-62 cells at 10 uM relative to control; assay type: functional; conditions: read-out: GI
PC-3 = experiment: Growth inhibition of human PC-3 cells at 10 uM relative to control; assay type: functional; conditions: read-out: GI
U-251 = experiment: Growth inhibition of human U-251 cells at 10 uM relative to control; assay type: functional; conditions: read-out: GI
Hs-578T = experiment: Growth inhibition of human Hs-578T cells at 10 uM relative to control; assay type: functional; conditions: read-out: GI
MOLT-4 = experiment: Growth inhibition of human MOLT-4 cells at 10 uM relative to control; assay type: functional; conditions: read-out: GI
SK-MEL-5 = experiment: Growth inhibition of human SK-MEL-5 cells at 10 uM relative to control; assay type: functional; conditions: read-out: GI

Work on COc1cc(/C=C/C2=CC(c3cc(OC)c(OC)c(OC)c3)N3C(C)=CSC3=N2)cc(OC)c1OC (centres undefined) yielded an inhibition of growth at 10 µM (SNB-75) of 12.5%, an inhibition of growth at 10 µM (NCI-H522) of 14.5% and an inhibition of growth at 10 µM (SK-OV-3) of less than 10%. For the same molecule, the inhibition of growth at 10 µM (RXF 393) was less than 10%, the inhibition of growth at 10 µM (HCT-116) was less than 10% and the inhibition of growth at 10 µM (NCI-H460) was less than 10%. For the same molecule, the inhibition of growth at 10 µM (SNB-19) was less than 10%, the inhibition of growth at 10 µM (NCI-H322M) was less than 10% and the inhibition of growth at 10 µM (MDA-MB-231) was less than 10%. It also gave an inhibition of growth at 10 µM (BT-549) of less than 10%, an inhibition of growth at 10 µM (LOX IMVI) of less than 10% and an IC50 (DNA) of 91.48 µg/mL (≈ 179 µM). For the same molecule, the inhibition of growth at 10 µM (HT-29) was less than 10%, the inhibition of growth at 10 µM (SR) was less than 10% and the inhibition of growth at 10 µM (CAKI-1) was less than 10%. The inhibition of growth at 10 µM (Malme-3M) was less than 10%, the inhibition of growth at 10 µM (A549) was less than 10% and the inhibition of growth at 10 µM (SK-MEL-28) was less than 10%. For the same molecule, the inhibition of growth at 10 µM (RPMI-8226) was less than 10%, the inhibition of growth at 10 µM (MCF7) was less than 10% and the inhibition of growth at 10 µM (COLO 205) was less than 10%. For the same molecule, the inhibition of growth at 10 µM (M14) was less than 10%, the inhibition of growth at 10 µM (ACHN) was less than 10% and the inhibition of growth at 10 µM (UACC-257) was less than 10%. It also gave an inhibition of growth at 10 µM (786-0) of less than 10%, an inhibition of growth at 10 µM (SW-620) of less than 10% and an inhibition of growth at 10 µM (T47D) of less than 10%. The inhibition of growth at 10 µM (CCRF-CEM) was less than 10%, the inhibition of growth at 10 µM (UACC-62) was less than 10% and the inhibition of growth at 10 µM (MDA-MB-468) was less than 10%. The inhibition of growth at 10 µM (SN12C) was less than 10%, the inhibition of growth at 10 µM (HOP-92) was less than 10% and the inhibition of growth at 10 µM (NCI/ADR-RES) was less than 10%. It also gave an inhibition of growth at 10 µM (NCI-H23) of less than 10%, an inhibition of growth at 10 µM (DU-145) of less than 10% and an inhibition of growth at 10 µM (HL-60(TB)) of less than 10%. The inhibition of growth at 10 µM (NCI-H226) was less than 10%, the inhibition of growth at 10 µM (SF-295) was less than 10% and the inhibition of growth at 10 µM (SF-539) was less than 10%. The inhibition of growth at 10 µM (SF-268) was less than 10%, the inhibition of growth at 10 µM (OVCAR-8) was less than 10% and the inhibition of growth at 10 µM (UO-31) was less than 10%. The inhibition of growth at 10 µM (KM12) was less than 10%, the inhibition of growth at 10 µM (TK-10) was less than 10% and the inhibition of growth at 10 µM (OVCAR-4) was less than 10%. The inhibition of growth at 10 µM (MDA-MB-435) was less than 10%, the inhibition of growth at 10 µM (SK-MEL-2) was less than 10% and the inhibition of growth at 10 µM (A498) was less than 10%. The inhibition of growth at 10 µM (HCC 2998) was less than 10%, the inhibition of growth at 10 µM (IGROV-1) was less than 10% and the inhibition of growth at 10 µM (K562) was less than 10%. The inhibition of growth at 10 µM (OVCAR-5) was less than 10%, the inhibition of growth at 10 µM (HCT-15) was less than 10% and the inhibition of growth at 10 µM (HOP-62) was less than 10%. The inhibition of growth at 10 µM (PC-3) was less than 10%, the inhibition of growth at 10 µM (U-251) was less than 10% and the inhibition of growth at 10 µM (Hs-578T) was less than 10%. For the same molecule, the inhibition of growth at 10 µM (MOLT-4) was less than 10% and the inhibition of growth at 10 µM (SK-MEL-5) was less than 10%.
